Assay results reported in PubChem BioAssay AID248 (DTP/NCI, 2004).
Values joined by “and” are separate entries in the source; they are usually repeats but may differ in a detail not shown here. Equal values may be shown once. Toxic doses and inconclusive results are not listed. Cut-off read from the data, not from the text of the source: active = T/C of 150% or more; inactive = T/C below 125%.

Test system: L1210 leukemia ip in BDF1 mice, survival T/C
Assay: NCI In Vivo Anticancer Drug Screen. Data for tumor model L1210 Leukemia (intraperitoneal) in B6D2F1 (BDF1) mice
Details: endpoint: mean survival time, higher = longer survival
In short: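 Antitumor effect is assessed in tumor-bearing animals. Survival in the compound arm is compared with a vehicle-dosed control arm and expressed as their quotient.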

[1] = dose: 50.0 mg/kg/injection, schedule: Q01DX009 (ip), vehicle: Klucel (hydroxypropylcellulose) (HPC)
[2] = dose: 100.0 mg/kg/injection, schedule: Q01DX009 (ip), vehicle: Klucel (hydroxypropylcellulose) (HPC)
[3] = dose: 100.0 mg/kg/injection, schedule: Q04DX003 (ip), vehicle: Klucel (hydroxypropylcellulose) (HPC)
[4] = dose: 200.0 mg/kg/injection, schedule: Q04DX003 (ip), vehicle: Klucel (hydroxypropylcellulose) (HPC)
[5] = dose: 50.0 mg/kg/injection, schedule: Q01DX009 (ip), vehicle: saline with Tween-80
[6] = dose: 100.0 mg/kg/injection, schedule: Q01DX009 (ip), vehicle: saline with Tween-80
[7] = dose: 200.0 mg/kg/injection, schedule: Q01DX009 (ip), vehicle: saline with Tween-80
[8] = dose: 200.0 mg/kg/injection, schedule: Q01DX009 (ip), vehicle: Klucel (hydroxypropylcellulose) (HPC)
[9] = dose: 400.0 mg/kg/injection, schedule: Q04DX003 (ip), vehicle: Klucel (hydroxypropylcellulose) (HPC)
[10] = dose: 50.0 mg/kg/injection, schedule: Q01DX009 (ip), vehicle: saline
[11] = dose: 100.0 mg/kg/injection, schedule: Q01DX009 (ip), vehicle: saline
[12] = dose: 100.0 mg/kg/injection, schedule: Q04DX003 (ip), vehicle: saline
[13] = dose: 200.0 mg/kg/injection, schedule: Q01DX009 (ip), vehicle: saline
[14] = dose: 200.0 mg/kg/injection, schedule: Q04DX003 (ip), vehicle: saline
[15] = dose: 400.0 mg/kg/injection, schedule: Q01DX009 (ip), vehicle: saline
[16] = dose: 400.0 mg/kg/injection, schedule: Q04DX003 (ip), vehicle: saline
[17] = dose: 100.0 mg/kg/injection, schedule: Q01DX001 (ip), vehicle: saline
[18] = dose: 200.0 mg/kg/injection, schedule: Q01DX001 (ip), vehicle: saline
[19] = dose: 400.0 mg/kg/injection, schedule: Q01DX001 (ip), vehicle: saline

Measured: T/C

CCOC(=O)Nc1ccc2c(c1)/C(=N\NC(=S)NC)c1ccccc1-2
inactive: dose: 75.0 mg/kg/injection, schedule: Q01DX001 (ip), vehicle: carboxymethylcellulose (CMC) 90 % of control | dose: 150.0 mg/kg/injection, schedule: Q01DX001 (ip), vehicle: carboxymethylcellulose (CMC) 92 % of control | dose: 300.0 mg/kg/injection, schedule: Q01DX001 (ip), vehicle: carboxymethylcellulose (CMC) 88 % of control

CN(C)CC1C2C=CC(C3CC23)C1CN(C)C (stereo not given)
inactive: dose: 25.0 mg/kg/injection, schedule: Q01DX009 (ip), vehicle: Klucel (hydroxypropylcellulose) (HPC) 113 % of control | dose: 25.0 mg/kg/injection, schedule: Q04DX003 (ip), vehicle: Klucel (hydroxypropylcellulose) (HPC) 94 % of control | [1] 107 % of control | dose: 50.0 mg/kg/injection, schedule: Q04DX003 (ip), vehicle: Klucel (hydroxypropylcellulose) (HPC) 102 % of control | [2] 108 % of control | [3] 94 % of control and 92 % of control | [4] 89 % of control

CC(CNN=C(N)N)NN=C(N)N (stereo not given)
inactive: dose: 30.0 mg/kg/injection, schedule: Q01DX Z (ip), vehicle: saline 116 % of control | dose: 60.0 mg/kg/injection, schedule: Q01DX Z (ip), vehicle: saline 100 % of control | dose: 120.0 mg/kg/injection, schedule: Q01DX Z (ip), vehicle: saline 96 % of control

CCCCN1C(=O)c2ccccc2C1=O
inactive: dose: 100.0 mg/kg/injection, schedule: Q04DX003 (ip), vehicle: carboxymethylcellulose (CMC) 102 % of control | dose: 200.0 mg/kg/injection, schedule: Q04DX003 (ip), vehicle: carboxymethylcellulose (CMC) 93 % of control | dose: 400.0 mg/kg/injection, schedule: Q04DX003 (ip), vehicle: carboxymethylcellulose (CMC) 101 % of control

O=[N+]([O-])c1cc(C(F)(F)C(F)(F)C(F)(F)c2ccc(O)c([N+](=O)[O-])c2)ccc1O
inactive: dose: 25.6 mg/kg/injection, schedule: Q04DX002 (ip), vehicle: saline with Tween-80 95 % of control | dose: 64.0 mg/kg/injection, schedule: Q04DX002 (ip), vehicle: saline with Tween-80 100 % of control | dose: 160.0 mg/kg/injection, schedule: Q04DX002 (ip), vehicle: saline with Tween-80 92 % of control

O=C(Nc1ccc(Cl)cc1C(F)(F)F)Oc1ccc(Cl)cc1Br
inactive: [5] 98 % of control | [6] 103 % of control | [7] 103 % of control

Cc1nc2[nH][nH]c(=O)c2nc1C
inactive: [1] 94 % of control | [2] 100 % of control | [3] 97 % of control | [8] 94 % of control | [4] 105 % of control | [9] 102 % of control

S=c1[nH]c2nc(Cl)c(Cl)nc2[nH]1
inactive: [5] 95 % of control | [6] 91 % of control | dose: 100.0 mg/kg/injection, schedule: Q04DX003 (ip), vehicle: saline with Tween-80 97 % of control | [7] 100 % of control | dose: 200.0 mg/kg/injection, schedule: Q04DX003 (ip), vehicle: saline with Tween-80 102 % of control

Nc1cccc(OCc2nc(N)nc(N)c2-c2ccc(Cl)c(Cl)c2)c1
inactive: dose: 100.0 mg/kg/injection, schedule: Q01DX001 (ip), vehicle: saline with Tween-80 97 % of control | dose: 200.0 mg/kg/injection, schedule: Q01DX001 (ip), vehicle: saline with Tween-80 90 % of control

O=C1NC(=O)c2ccccc21
inactive: dose: 25.0 mg/kg/injection, schedule: Q01DX009 (ip), vehicle: saline 94 % of control | [10] 99 % of control | [11] 94 % of control and 96 % of control | [12] 95 % of control | [13] 95 % of control and 108 % of control | [14] 98 % of control | [15] 95 % of control and 96 % of control | [16] 106 % of control

O=[N+]([O-])c1ccc(O)c(N=Cc2ccccn2)c1
inactive: [17] 90 % of control | [18] 90 % of control | [19] 100 % of control

CCC(C)(C)c1ccc(O)c(C(C)(C)CC)c1
inactive: [2] 96 % of control | [3] 100 % of control | [8] 96 % of control | [4] 89 % of control | dose: 400.0 mg/kg/injection, schedule: Q01DX009 (ip), vehicle: Klucel (hydroxypropylcellulose) (HPC) 96 % of control | [9] 87 % of control

O=C(N/N=C/c1ccc(Cl)cc1)Nc1ccccc1
inactive: [2] 90 % of control | [8] 96 % of control

Cc1ccc(NC2=C(Cl)C(=O)c3ccccc3C2=O)cc1
inactive: dose: 50.0 mg/kg/injection, schedule: Q01DX001 (ip), vehicle: carboxymethylcellulose (CMC) 101 % of control | dose: 100.0 mg/kg/injection, schedule: Q01DX001 (ip), vehicle: carboxymethylcellulose (CMC) 95 % of control | dose: 200.0 mg/kg/injection, schedule: Q01DX001 (ip), vehicle: carboxymethylcellulose (CMC) 93 % of control | dose: 400.0 mg/kg/injection, schedule: Q01DX001 (ip), vehicle: carboxymethylcellulose (CMC) 89 % of control

O=[N+]([O-])c1ccc(C=Nc2ccccc2S)s1
inactive: [3] 100 % of control | [4] 96 % of control | [9] 94 % of control

CC1=CCC(C/C=N/N=C/CC2CC=C(C)C2(C)C)C1(C)C (stereo not given)
inactive: dose: 100.0 mg/kg/injection, schedule: Q01DX009 (sc), vehicle: olive oil, sesame oil, peanut oil 100 % of control | dose: 100.0 mg/kg/injection, schedule: Q04DX003 (sc), vehicle: olive oil, sesame oil, peanut oil 97 % of control | dose: 200.0 mg/kg/injection, schedule: Q01DX009 (sc), vehicle: olive oil, sesame oil, peanut oil 100 % of control | dose: 200.0 mg/kg/injection, schedule: Q04DX003 (sc), vehicle: olive oil, sesame oil, peanut oil 101 % of control | dose: 400.0 mg/kg/injection, schedule: Q01DX009 (sc), vehicle: olive oil, sesame oil, peanut oil 98 % of control | dose: 400.0 mg/kg/injection, schedule: Q04DX003 (sc), vehicle: olive oil, sesame oil, peanut oil 106 % of control

COc1ccc(COC(=O)NC2CCCCC2)cc1OC
inactive: dose: 65.0 mg/kg/injection, schedule: Q01DX009 (ip), vehicle: saline 93 % of control | [11] 93 % of control | [12] 112 % of control | dose: 150.0 mg/kg/injection, schedule: Q01DX009 (ip), vehicle: saline 101 % of control | [13] 104 % of control | [14] 118 % of control | [15] 102 % of control | [16] 102 % of control

CC1=[N+](CCS(C)(=O)=O)C(C)CCC1 (stereo not given)
inactive: dose: 50.0 mg/kg/injection, schedule: Q01DX001 (ip), vehicle: saline 115 % of control | [17] 110 % of control | [18] 106 % of control | [19] 106 % of control

CCN1CCC2CN(C(=N)N)CCN2C1=O (stereo not given)
inactive: [12] 101 % of control | [14] 103 % of control | [16] 116 % of control

CC(=O)OCC1OC(n2c(O)c(/C=C3\C=Nc4ccccc43)sc2=S)C(OC(C)=O)C(OC(C)=O)C1OC(C)=O (stereo not given)
inactive: dose: 12.5 mg/kg/injection, schedule: Q01DX005 (ip), vehicle: other 94 % of control | dose: 25.0 mg/kg/injection, schedule: Q01DX005 (ip), vehicle: other 91 % of control | dose: 50.0 mg/kg/injection, schedule: Q01DX005 (ip), vehicle: other 92 % of control | dose: 100.0 mg/kg/injection, schedule: Q01DX005 (ip), vehicle: other 111 % of control | dose: 200.0 mg/kg/injection, schedule: Q01DX005 (ip), vehicle: other 94 % of control

CC(O)C(O)C(=O)NN (stereo not given)
inactive: [10] 91 % of control | [11] 98 % of control | [13] 98 % of control
